Data as given in paper PMC5861220, “The Cytochrome P450-Mediated Metabolism Alternation of Four Effective Lignans From Schisandra chinensis in Carbon Tetrachloride-Intoxicated Rats and Patients With Advanced Hepatocellular Carcinoma” (Frontiers in Pharmacology, 2018).
Like-named read-outs stand apart in the source and are kept apart here.

Tests used:
[1] = Identification of CYP450 isozymes in lignan metabolism, human liver microsomes (no inhibitor); format: in vitro ADME; conditions: human, 5 μM, pH 7.4
Protocol: (§1) The CYP450s involved in the metabolism of schisandrin, schisantherin A, deoxyshisandrin and γ-schisandrin in rat or human liver microsomes were confirmed by comparison of the metabolism ratio before and after the addition of selective inhibitors to CYP450 isozymes. […] The supernate was injected to HPLC-MS for analysis of the four lignans.

[2] = In situ hepatic perfusion of four lignans; format: in vivo, rat; conditions: Sprague-Dawley, rat, perfusate, perfusate AUC(0−1h), n = 3
Protocol: (§2) In situ liver perfusion was performed similarly as the method described previously (Uraki et al., [2016]). […] The perfusate consisted of Krebs–Hensleit buffer (pH 7.4) containing sodium taurocholate (4.75 mg/L), 1% bovine serum albumin, and glucose (1.2 g/L) was oxygenated using carbogen, 95% O2/5% CO2. The perfusate at 37°C was infused into the portal vein at a flow rate of 30 mL/min in a recirculatory manner. After 10-min equilibration, four schisandra lignans were added to the reservoir (final concentration of 10 μM). Perfusate (0.5 mL) and bile samples were collected at 0, 10, 20, 30, 40, 50, and 60 min after the addition of lignans. The same volume of blank perfusion buffer was immediately added to the reservoir after collection of the perfusate samples. After hepatic perfusion, rat was sacrificed and liver was removed, blotted dry, and weighed.

rat liver = assay: In situ hepatic perfusion of four lignans; format: in vivo; conditions: hepatic perfusion 60 min, 10 μM, n = 3
Protocol: as §2

[3] = Pharmacokinetics of four lignans in rats after oral SC alcoholic extract; format: in vivo, rat; conditions: for AUC(0-t) / Cmax / half-life / CL/F / MRT last / Tmax: Sprague-Dawley, rat, plasma, po, 1.5 g/kg/day, oral SC alcoholic extract 1.5 g/kg/day for 4 days, n = 5; for CL/F: read-out: CLz/F (converted); for MRT last: read-out: MRT(0−t); for Tmax: read-out: Tmax
Protocol: The pharmacokinetic profiles of four lignans were studied in ALI rat after multiple oral administrations of SC alcoholic extract at dose of 1.5 g/kg/day. After the ALI rat was established, SC alcoholic extract suspended in 0.5% sodium carboxymethyl cellulose was given to ALI rats and the control via oral gavage once a day for 4 consecutive days. Before the last dosing, rats were fasted for 12 h while water was taken freely. Blood samples were collected at 0, 0.25, 0.5, 1, 2, 3, 4, 6, 8, 12, 24, 36, and 48 h after the last dosing. A cannula was surgically placed into the jugular vein for collection of blood samples (about 0.1 mL) and blood loss compensation using sterile isotonic saline in the pharmacokinetic study. Plasma was separated by centrifugation and stored at −20°C until analysis. Plasma concentrations of the four lignans were quantified using HPLC-MS analysis developed according to the reported method (Wang et al., [2008]).
Data fitting and pharmacokinetic parameter calculations were carried out using the Winnolin software. Non-compartmental analysis was used to calculate the pharmacokinetic parameters. Parameters, such as AUC and MRT, were calculated using statistical moment method.

[4] = Transport across Caco-2 cell monolayer; format: in vitro ADME; conditions: human, Caco-2
Protocol: Caco-2 cell (passage 38) was used in the transport experiments. Cells were seeded on polycarbonate filters (12 mm diameter, pore size […]) at 1 × 10^5/cm^2. The cell monolayer was formed 21 days post seeding when the transepithelial electrical resistance (TEER) was above 1,000 Ω• cm^2. Three concentration levels (5, 10, and 50 μM) were set for the four schisandra lignans in the study. After preincubation for 1 h at 37°C, the solution of the four lignans was respectively added to the apical (0.4 mL) or basolateral (0.6 mL) chamber for absorptive (AP → BL) and secretive (BL → AP) permeability test. At the specified timepoints (0.5, 1, 1.5 and 2 h), 50 μL samples (n = 3) were withdrawn from receiver chamber, and meanwhile, 50 μL fresh buffer was added. The four lignans were determined by HPLC-MS method.
The efflux rate (ER) was calculated by the formula ER = Papp (BL → AP)/Papp(AP → BL).

[5] = tested on: rat intestine (jejunum segment); assay: In situ intestinal perfusion of four lignans; format: in vivo; conditions: for Perfusate (Percent of the initial dose) / Plasma (Percent of the initial dose) / Intestine (Percent of the initial dose) / Pblood / Plumen: 50 μM, n = 3; for Perfusate (Percent of the initial dose): intestinal perfusion 60 min; for Plasma (Percent of the initial dose) / Intestine (Percent of the initial dose): intestinal perfusion; for Plasma (Percent of the initial dose): mesenteric vein blood
Protocol: The surgical procedures of intestinal perfusion were conducted according to those published reports (Savina et al., [1981]). Hank's balanced salt solution (HBSS, pH 7.4) with four schisandra lignans (50 μM) at 37°C was infused into the jejunum segment at rate of 0.3 mL/min. Phenol Red (50 μM) was added to serve as a nonabsorbable marker for measuring water flux. Blood samples from mesenteric vein and perfusate were collected at 5-min interval. The plasma separated by centrifugation and perfusate was stored at −20°C until HPLC-MS analysis.
The permeability of four lignans across the rat intestine was calculated based on the disappearance of parent drug from the lumen (Plumen) as well as the appearance of the drug in blood (Pblood) using the following equations (Singhal et al., [1998]):
(1) Plumen = −Q/2πrlLnCout/Cin
(1) Pblood = ΔMB/Δt/2πrl{C}
where r is the radius of the perfused intestinal lumen; l is the length of the segment; Q is the flow rate of perfusate; Cin is the concentration of drug at the start of perfusion; and Cout is the steady-state concentration of drug exiting the lumen. ΔMB/Δt is the rate of drug appearance in mesenteric blood; and {C} is the logarithmic mean concentration of drug in the lumen.

[6] = Identification of CYP450 isozymes in lignan metabolism, rat liver microsomes (no inhibitor / overall); format: in vitro ADME; conditions: rat, 5 μM, pH 7.4
Protocol: as §1

- Metabolism rate [1]: 194.1 ± 12.9 nmol/min/mg
- AUC at 10 μM ([2]; pH 7.4, Control rats): 3190 ± 70 ng·h/mL
- Total amount of analyte in bile (rat liver; Control rats): 1.37 ± 0.14 µg
- Total amount of analyte in liver (rat liver; Control rats): 11.10 ± 1.31 µg
- AUC(0-t) ([3]; Control (normal) rats): 5220 ± 1430 ng·h/mL
- Cmax ([3]; Control (normal) rats): 182 ± 103 ng/mL
- half-life ([3]; Control (normal) rats): 15.4 ± 2.52 h
- CL/F ([3]; Control (normal) rats): 54.3 mL/min/kg
- MRT last ([3]; Control (normal) rats): 16.5 ± 0.94 h
- Tmax ([3]; Control (normal) rats): 6.4 ± 0.89 h
- Papp A→B at 2 h, 5 μM ([4]; 5 μM): 1.17 ± 0.16 ×10⁻⁶ cm/s
- Papp B→A at 2 h, 5 μM ([4]; 5 μM): 1.32 ± 0.14 ×10⁻⁶ cm/s
- efflux ratio at 2 h, 5 μM ([4]; 5 μM, ER = Papp (BL → AP)/Papp(AP → BL)): 1.13
- Papp A→B at 2 h, 10 μM ([4]; 10 μM): 1.18 ± 0.09 ×10⁻⁶ cm/s
- Papp B→A at 2 h, 10 μM ([4]; 10 μM): 1.34 ± 0.11 ×10⁻⁶ cm/s
- efflux ratio at 2 h, 10 μM ([4]; 10 μM, ER = Papp (BL → AP)/Papp(AP → BL)): 1.14
- Papp A→B at 2 h, 50 μM ([4]; 50 μM): 1.22 ± 0.16 ×10⁻⁶ cm/s
- Papp B→A at 2 h, 50 μM ([4]; 50 μM): 1.32 ± 0.2 ×10⁻⁶ cm/s
- efflux ratio at 2 h, 50 μM ([4]; 50 μM, ER = Papp (BL → AP)/Papp(AP → BL)): 1.08
- Perfusate (Percent of the initial dose) ([5]; Control rats): 92.57 ± 1.67% of the initial dose
- Plasma (Percent of the initial dose) ([5]; Control rats): 0.84 ± 0.09% of the initial dose
- Intestine (Percent of the initial dose) ([5]; Control rats): 1.66 ± 0.27% of the initial dose
- Pblood ([5]; Control rats): 0.052 ± 0.009 × 10^−4 cm/s
- Plumen ([5]; Control rats): 2.543 ± 0.174 × 10^−4 cm/s
- Increase of remaining amount in perfusate ([5]; intestinal autoperfusion (60 min), CCl4-treated rats vs control): not changed
- Metabolism rate [6]: 79.6 ± 6.5 nmol/min/mg
SMILES: COc1cc2c(c(OC)c1OC)-c1c(cc3c(c1OC)OCO3)C[C@H](C)[C@H](C)C2 [γ-Schisandrin, γ-schisandrin]
- AUC at 10 μM ([2]; pH 7.4, CCl4-intoxicated rats): 3740 ± 70 ng·h/mL
- Total amount of analyte in bile (rat liver; CCl4-intoxicated rats): 1.19 ± 0.28 µg
- Total amount of analyte in liver (rat liver; CCl4-intoxicated rats): 14.25 ± 1.36 µg
- Reduction of systemic clearance (CLz/F) ([3]; CCl4 intoxicated rats vs control rats): ~54%
- AUC(0-t) ([3]; CCl4-intoxicated rats): 11600 ± 3090 ng·h/mL
- Cmax ([3]; CCl4-intoxicated rats): 628 ± 164 ng/mL
- half-life ([3]; CCl4-intoxicated rats): 14.5 ± 5.05 h
- CL/F ([3]; CCl4-intoxicated rats): 25.2 mL/min/kg
- MRT last ([3]; CCl4-intoxicated rats): 15.9 ± 1.24 h
- Tmax ([3]; CCl4-intoxicated rats): 4.2 ± 1.79 h
- Perfusate (Percent of the initial dose) ([5]; CCl4-intoxicated rats): 91.92 ± 1.69% of the initial dose
- Plasma (Percent of the initial dose) ([5]; CCl4-intoxicated rats): 0.82 ± 0.06% of the initial dose
- Intestine (Percent of the initial dose) ([5]; CCl4-intoxicated rats): 1.87 ± 0.20% of the initial dose
- Pblood ([5]; CCl4-intoxicated rats): 0.066 ± 0.018 × 10^−4 cm/s
- Plumen ([5]; CCl4-intoxicated rats): 2.540 ± 0.423 × 10^−4 cm/s
